Patent publication US8575158B2, “1-phenyl-substituted heterocyclyl derivatives and their use as prostaglandin D2 receptor modulators” (Actelion Pharmaceuticals Ltd., priority 2010, dated 2013)
pIC50: −log10 of the molar value.

Target: T1, hCRTH2 receptor (Homo sapiens, UniProt Q9Y5Y4)
T1 construct: expressed in transfected cells; host or cells: HEK293
T1 sequence (Q9Y5Y4 1-395): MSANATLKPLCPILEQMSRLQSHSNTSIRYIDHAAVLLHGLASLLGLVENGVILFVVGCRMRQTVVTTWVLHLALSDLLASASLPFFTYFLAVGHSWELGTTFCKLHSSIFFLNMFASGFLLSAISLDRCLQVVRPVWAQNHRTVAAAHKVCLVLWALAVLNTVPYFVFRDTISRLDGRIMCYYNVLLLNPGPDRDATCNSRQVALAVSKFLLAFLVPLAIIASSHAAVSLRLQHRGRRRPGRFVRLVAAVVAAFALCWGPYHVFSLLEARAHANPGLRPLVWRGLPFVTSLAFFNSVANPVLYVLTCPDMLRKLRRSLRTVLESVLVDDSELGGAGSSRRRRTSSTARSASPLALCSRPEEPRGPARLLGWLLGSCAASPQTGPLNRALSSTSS
Test: Radioligand displacement assay (3H-PGD2) on hCRTH2 receptor membranes
Type: binding
Conditions: antagonistic activity, 3H-PGD2 radioligand displacement, HEK293-hCRTH2 membranes

pIC50	Compound
9.28	O=C(O)COc1ccc(Cl)cc1[C@@H]1c2ccc(F)c(F)c2CCN1C(=O)OCc1nc2ccccc2o1 [Example 320, (S)-1-(2-Carboxymethoxy-5-chloro-phenyl)-5,6-difluoro-3,4-dihydro-1H-isoquinoline-2-carboxylic acid benzooxazol-2-ylmethyl ester]
7.67	Cc1ncsc1CCOC(=O)N1CCc2cc(F)ccc2[C@H]1c1cc(Cl)ccc1OCC(=O)O [Example 325, (S)-1-(2-Carboxymethoxy-5-chloro-phenyl)-6-fluoro-3,4-dihydro-1H-isoquinoline-2-carboxylic acid 2-(4-methyl-thiazol-5-yl)-ethyl ester]
7.19	O=C(O)COc1ccc(Cl)cc1[C@@H]1c2ccc(F)cc2CCN1C(=O)CCn1ncc2ccc(F)cc21 [Example 398]
6.70	NC(=O)c1ncccc1OCC(=O)N1CCc2ccccc2C1c1cc(Cl)ccc1OCC(=O)O (racemic) [Example 479]
6.15	O=C(O)COc1ccc(Cl)cc1C1c2ccccc2CN1C(=O)CCn1ncc2cccc(Cl)c21 (single isomer, unassigned) [Example 548]
7.59	O=C(O)COc1ccc(Cl)cc1C1c2ccccc2CCN1C(=O)COc1cccc2cccnc12 (racemic) [Example 411]
7.48	Cn1cc(CCC(=O)N2CCc3cc(F)ccc3C2c2cc(Cl)ccc2OCC(=O)O)c2ccccc21 (racemic) [Example 434]
7.92	O=C(O)COc1ccc(Cl)cc1C1c2ccccc2CCN1C(=O)[C@@H]1C[C@H]1c1cccc(F)c1 (mixture of isomers) [Example 424]
6.47	O=C(O)COc1ccc(Cl)cc1C1c2ccccc2CCN1C(=O)COc1cccnc1OCCO (racemic) [Example 475]
6.79	COc1ncc(C)cc1OCC(=O)N1CCc2ccccc2C1c1cc(Cl)ccc1OCC(=O)O (racemic) [Example 484]
8.14	Cc1conc1COC(=O)N1CCc2cc(F)ccc2[C@H]1c1cc(Cl)ccc1OCC(=O)O [Example 331, (S)-1-(2-Carboxymethoxy-5-chloro-phenyl)-6-fluoro-3,4-dihydro-1H-isoquinoline-2-carboxylic acid 4-methyl-isoxazol-3-ylmethyl ester]
7.17	CC[C@@H]1C[C@H]1C(=O)N1CCc2ccccc2[C@H]1c1cc(Cl)ccc1OCC(=O)O [Example 460]
8.25	Cc1ccccc1[C@@H]1C[C@H]1C(=O)N1CCc2ccccc2C1c1cc(Cl)ccc1OCC(=O)O (mixture of isomers) [Example 422]
7.73	Cc1ccc(COC(=O)N2CCc3ccccc3C2c2cc(Cl)ccc2OCC(=O)O)cc1 (racemic) [Example 360]
8.45	Cc1ccccc1[C@@H]1C[C@H]1C(=O)N1CCc2cc(F)ccc2C1c1cc(Cl)ccc1OCC(=O)O (mixture of isomers) [Example 431]
6.50	COc1ccc2c(ccn2CC(=O)N2CCc3ccccc3C2c2cc(Cl)ccc2OCC(=O)O)c1 (racemic) [Example 489]
6.36	COc1cc2c(ccn2CCC(=O)N2CCc3ccccc3C2c2cc(Cl)ccc2OCC(=O)O)cn1 (racemic) [Example 373]
7.10	O=C(O)COc1ccc(Cl)cc1[C@@H]1c2ccc(F)cc2CCN1C(=O)CCn1ncc2cccc(F)c21 [Example 403]
6.45	O=C(O)COc1ccc(Cl)cc1C1c2ccccc2CN1C(=O)CCn1ncc2cc(F)ccc21 (single isomer, unassigned) [Example 543, (4-Chloro-2-{2-[3-(5-fluoro-indazol-1-yl)-propionyl]-2,3-dihydro-1H-isoindol-1-yl}-phenoxy)-acetic acid]
7.62	O=C(O)COc1ccc(Cl)cc1C1c2ccccc2CCN1C(=O)[C@@H]1C[C@H]1c1cccc(Cl)c1 (mixture of isomers) [Example 421]
8.19	Cc1ncsc1CCOC(=O)N1CCc2c(ccc(F)c2F)[C@H]1c1cc(Cl)ccc1OCC(=O)O [Example 300, (S)-1-(2-Carboxymethoxy-5-chloro-phenyl)-5,6-difluoro-3,4-dihydro-1H-isoquinoline-2-carboxylic acid 2-(4-methyl-thiazol-5-yl)-ethyl ester]

Same assay, conditions: antagonistic activity; 3H-PGD2 displacement on HEK293-hCRTH2 membrane fragments

Compound	pIC50
O=C(O)COc1ccc(Cl)cc1C1c2ccccc2CCN1C(=O)CN1CCCc2ccccc21 (racemic) [Example 79, (±)-{4-Chloro-2-[2-(2-3,4-dihydro-2H-quinolin-1-yl-acetyl)-1,2,3,4-tetrahydro-isoquinolin-1-yl]-phenoxy}-acetic acid]	7.20
COc1ccc2[nH]cc(CCC(=O)N3CCc4ccccc4C3c3cc(Cl)ccc3OCC(=O)O)c2c1 (racemic) [Example 74, (±)-(4-Chloro-2-{2-[3-(5-methoxy-1H-indol-3-yl)-propionyl]-1,2,3,4-tetrahydro-isoquinolin-1-yl}-phenoxy)-acetic acid]	8.85
O=C(O)COc1ccc(F)cc1C1c2ccccc2CCN1C(=O)COCc1ccccc1Cl (racemic) [Example 150]	8.21
O=C(O)COc1ccc(S(=O)(=O)c2ccccc2)cc1C1c2ccccc2CCN1C(=O)OCc1ccccc1 (racemic) [Example 183]	7.19
O=C(O)COc1ccc(F)cc1[C@@H]1c2ccccc2CCN1C(=O)[C@@H]1C[C@H]1c1ccccc1 (single isomer, unassigned) [Example 30]	6.04
O=C(O)COc1ccc(Cl)cc1C1c2ccccc2CCN1C(=O)COCc1ccccc1 (racemic) [Example 105, (±)-{2-[2-(2-Benzyloxy-acetyl)-1,2,3,4-tetrahydro-isoquinolin-1-yl]-4-chloro-phenoxy}-acetic acid]	8.00
COc1ccccc1[C@@H]1C[C@H]1C(=O)N1CCc2ccccc2C1c1cc(Cl)ccc1OCC(=O)O (mixture of isomers) [Example 159]	7.67
COc1ccccc1CCC(=O)N1CCc2ccccc2C1c1cc(F)ccc1OCC(=O)O (racemic) [Example 128, (±)-(4-Fluoro-2-{2-[3-(2-methoxy-phenyl)-propionyl]-1,2,3,4-tetrahydro-isoquinolin-1-yl}-phenoxy)-acetic acid]	7.16
O=C(O)COc1ccc(Cl)cc1C1c2ccccc2CCN1C(=O)COc1ccccc1-c1ccccc1 (racemic) [Example 86, (±)-(2-{2-[2-(Biphenyl-2-yloxy)-acetyl]-1,2,3,4-tetrahydro-isoquinolin-1-yl}-4-chloro-phenoxy)-acetic acid]	6.37
O=C(O)COc1ccc(Cl)cc1C1c2ccccc2CCN1C(=O)Cc1c[nH]c2ccc(Cl)cc12 (racemic) [Example 96, (±)-(4-Chloro-2-{2-[2-(5-chloro-1H-indol-3-yl)-acetyl]-1,2,3,4-tetrahydro-isoquinolin-1-yl}-phenoxy)-acetic acid]	6.76
O=C(O)COc1ccc(F)cc1C1c2ccccc2CCN1C(=O)NCCc1ccccc1 (racemic) [Example 200]	7.51
O=C(O)COc1ccc(Cl)cc1[C@@H]1c2ccccc2CCN1C(=O)OCc1ccccc1 [Example 26, (S)-1-(2-Carboxymethoxy-5-chloro-phenyl)-3,4-dihydro-1H-isoquinoline-2-carboxylic acid benzyl ester]	8.34
O=C(O)COc1c(F)cc(F)cc1C1c2ccccc2CCN1C(=O)OCc1ccccc1 (racemic) [Example 33, (±)-1-(2-Carboxymethoxy-3,5-difluoro-phenyl)-3,4-dihydro-1H-isoquinoline-2-carboxylic acid benzyl ester]	6.71
O=C(O)COc1ccc(Cl)cc1C1c2ccccc2CCN1C(=O)CSc1cnnn1-c1ccccc1 (racemic) [Example 162]	6.94
O=C(O)COc1ccc(Cl)cc1C1c2ccccc2CCN1C(=O)C1CC1c1ccccc1C(F)(F)F (single isomer, unassigned) [Example 156, (±)-(4-Chloro-2-{2-[(trans)-2-(2-trifluoromethyl-phenyl)-cyclopropanecarbonyl]-1,2,3,4-tetrahydro-iso-quinolin-1-yl}-phenoxy)-acetic acid (diatereoisomer 2)]	7.85
O=C(O)COc1ccc(-c2ccc(F)cc2)cc1C1c2ccccc2CCN1C(=O)OCc1ccccc1 (racemic) [Example 189, (±)-1-(4-Carboxymethoxy-4′-fluoro-biphenyl-3-yl)-3,4-dihydro-1H-isoquinoline-2-carboxylic acid benzyl ester]	7.63
O=C(O)COc1ccc(Cl)cc1C1c2ccccc2CCN1C(=O)[C@@H]1C[C@H]1c1cccc(Cl)c1 (single isomer, unassigned; diastereoisomer 1) [Example 151, (±)-(4-Chloro-2-{2-[(trans)-2-(3-chloro-phenyl)-cyclopropanecarbonyl]-1,2,3,4-tetrahydro-isoquinolin-1-yl}-phenoxy)-acetic acid (diastereoisomer 1)]	6.58

Now from value to molecule:

pIC50	Compound
7.56	O=C(O)COc1ccc(Cl)cc1C1c2ccccc2CCN1C(=O)OCC1CC1 (racemic) [Example 268]
6.74	O=C(O)COc1cccc(F)c1C1c2ccccc2CCN1C(=O)OCc1ccccc1 (racemic) [Example 216, (±)-1-(2-Carboxymethoxy-6-fluoro-phenyl)-3,4-dihydro-1H-isoquinoline-2-carboxylic acid benzyl ester]

Same assay, conditions: radioligand displacement (3H-PGD2), hCRTH2 receptor membranes; antagonistic activity

pIC50	Compound
6.58	O=C(O)COc1ccc(Cl)cc1[C@@H]1c2ccccc2CCN1C(=O)[C@H]1C[C@@H]1c1ccccc1C(F)(F)F [Example 563, (4-Chloro-2-{(S)-2-[(1S,2S)-2-(2-trifluoromethyl-phenyl)-cyclopropanecarbonyl]-1,2,3,4-tetrahydro-isoquinolin-1-yl}-phenoxy)-acetic acid]
